Here are results for two molecules from patent publication US20230295212A1 (ROME Therapeutics, Inc., priority 2022, published 2023).

What is called pIC50 is the IC50 on a negative log10 scale, so that one unit is a factor of ten. Lower therefore signals a high IC50.

For series [1], the system named is THP1-Dual KO-TREX1 xenograft tumors. Nature of the series: Altering IFN production in THP1-Dual KO-TREX1 mouse xenografts (Compound 67). The format is in vivo. The settings on record: CB-17 SCID mice, decitabine 5 mg/kg SC, compound 0.3-100 mg/kg PO once daily 5 days, tumors 4 h post-last dose. As for the experimental part:
Exemplary Compound 67 was tested for its ability to alter IFN levels in THP1-Dual™ KO-TREX1 xenografts in mice. Assay procedures are described below.
CB-17 SCID female mice were inoculated subcutaneously with 10 million THP1-Dual™ KO-TREX1 cells in 200 μl PBS with Matrigel (1:1) and grouped at N=5 per treatment per sampling timepoint when tumor volume reached an average of 340 mm^3. Six groups were co-administered: (1) decitabine (DAC) at 5 mg/kg SC, once daily, for 5 days, and (2) test compound 67 at one of six doses (0.3 mg/kg PO, 1 mg/kg PO, 3 mg/kg PO, 10 mg/kg PO, 30 mg/kg PO, 100 mg/kg PO) once daily, for 5 days. Two additional groups were administered (1) decitabine and test compound vehicle control SC+PO, once daily, for 5 days, and (2) decitabine at 5 mg/kg SC, once daily, for 5 days. […]
Tumors were harvested 4 h post-last dose administered on day 5, grinded in PBS at 50 Hz for 5 min, kept on ice for 30 min while being vortexed every 5 min. […] Equal amounts of proteins were added to 96-well black plates, and luciferase signal was measured using the QUANTI-Luc™ detection medium according to manufacturer's instructions. Luminescence was measured using the EnVision® 2105 Multimode Plate Reader.
Experimental results are depicted in FIG. 9. […] In FIG. 9, IFN signal was measured in tumors harvested from mice 4 hours after the final decitabine and test compound dosing on day 5.

The target in series [2] is T1, LINE1 reverse transcriptase (Homo sapiens, UniProt O00370).
T1 construct: expressed in transfected cells; host or cells: HeLa Tet-On 3G (Takara, cat no 631183)
T1 sequence (O00370 whole entry, looked up): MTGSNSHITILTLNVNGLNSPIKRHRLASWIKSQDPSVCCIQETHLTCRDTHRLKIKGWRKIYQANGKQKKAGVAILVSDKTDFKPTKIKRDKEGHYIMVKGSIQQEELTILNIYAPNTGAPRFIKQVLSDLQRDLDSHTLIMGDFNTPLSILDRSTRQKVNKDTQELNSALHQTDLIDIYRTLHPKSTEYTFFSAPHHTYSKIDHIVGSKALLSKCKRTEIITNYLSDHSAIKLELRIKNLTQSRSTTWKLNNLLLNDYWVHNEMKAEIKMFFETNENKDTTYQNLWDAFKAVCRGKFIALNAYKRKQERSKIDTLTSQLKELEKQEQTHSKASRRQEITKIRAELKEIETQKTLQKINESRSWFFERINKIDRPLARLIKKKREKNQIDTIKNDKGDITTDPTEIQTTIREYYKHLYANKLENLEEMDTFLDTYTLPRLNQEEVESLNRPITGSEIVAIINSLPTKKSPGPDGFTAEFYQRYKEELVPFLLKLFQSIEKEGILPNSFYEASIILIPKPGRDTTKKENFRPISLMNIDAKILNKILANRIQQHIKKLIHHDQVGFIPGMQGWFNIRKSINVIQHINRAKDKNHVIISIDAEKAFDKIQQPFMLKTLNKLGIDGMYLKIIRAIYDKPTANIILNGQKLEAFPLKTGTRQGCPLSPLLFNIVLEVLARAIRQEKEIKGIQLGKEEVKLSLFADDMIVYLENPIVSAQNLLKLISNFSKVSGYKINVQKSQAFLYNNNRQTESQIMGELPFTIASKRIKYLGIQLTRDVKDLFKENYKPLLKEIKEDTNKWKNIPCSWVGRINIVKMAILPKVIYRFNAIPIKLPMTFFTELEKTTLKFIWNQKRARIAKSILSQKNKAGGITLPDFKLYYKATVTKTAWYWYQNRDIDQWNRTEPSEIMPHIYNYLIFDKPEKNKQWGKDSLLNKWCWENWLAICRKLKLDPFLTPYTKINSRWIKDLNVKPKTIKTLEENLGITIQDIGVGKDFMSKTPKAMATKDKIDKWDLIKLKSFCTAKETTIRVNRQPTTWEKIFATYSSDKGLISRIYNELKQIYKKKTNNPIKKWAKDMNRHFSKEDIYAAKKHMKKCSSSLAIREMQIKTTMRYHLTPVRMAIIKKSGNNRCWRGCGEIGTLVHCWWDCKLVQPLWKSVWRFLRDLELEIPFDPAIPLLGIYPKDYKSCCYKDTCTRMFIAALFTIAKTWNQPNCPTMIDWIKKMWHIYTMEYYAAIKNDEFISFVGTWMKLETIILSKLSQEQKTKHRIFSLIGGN
Nature of the series: Stable artificial-intron Cis LINE1 reporter assay (HeLa Tet-On 3G, Firefly luciferase). The format is cell-based. As to conditions: HeLa L1 artificial-intron reporter cells, doxycycline 500 ng/mL, 72 h, class symbols. The method in brief:
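HeLa Tet-On 3G clone stably carrying a bi-directional doxycycline-inducible artificial-intron LINE1 reporter, plated at 8,000 cells/well onto serially diluted compound. Expression induced with 500 ng/mL doxycycline (final); Firefly luciferase luminescence (Dual-Glo) read 72 h after plating as LINE1 activity.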
(In general: Reporter assays use an easily measured gene product as a stand-in for the process of interest.)

The test system of series [3] is phosphorylated TANK-binding kinase 1 (pTBK1). Kind of series: UVB-induced pTBK1 in HaCaT cells (ELISA). The format is cell-based. As for the experimental part:
pTBK1 is an important signaling molecule in regulating inflammatory responses. HaCaT cells were plated in 6-well plates at a density of ˜100 k/well in HaCaT media (DMEM, optimized 1×(Addex Bio)^+1% pen strep (Gibco)^+5% heat inactivated fetal bovine serum (Gibco)). The cells were then cultured at 37° C. overnight. The next day, the cells were treated with the test compounds. Each test compound was diluted and added to media aliquots to provide desired concentrations. To add the test compound+media mixture, an equivalent amount of media from each well was aspirated and then replenished with the media dosed with the test compound. The cells were then cultured for an additional 72 hours with compound treatment prior to UVB exposure.
The media was then aspirated from the wells, with the remaining cells at least 80% confluent in each well. One mL of PBS was then added to each well, and the plate was then placed under a UVB lamp. A UVB sensor was positioned near the plate to register the plate's exposure. The cells were exposed to the UVB light until they reached 0.1 mJ/cm2. […]
A RIPA lysis buffer (#BP-115, Boston BioProducts) was added to a Halt protease and […] inhibitor cocktail (#78440, ThermoFisher), and the mixture was cooled on ice. […] The protein concentration of the cell lysate was measured using Pierce™ Rapid Gold BCA Protein Assay Kit #AF3225 (ThermoFisher). […]
A general note: ELISA stands for enzyme-linked immunosorbent assay.

The structures appear in SMILES notation. pIC50: −log10 of the molar value. Where only a bound is given, the exact number is not on record here.

Turning to `Nc1nc(=O)n([C@@H]2O[C@@](CO)(CCl)[C@@H](O)[C@@H]2F)cc1F` [Compound 67, 4-amino-1-[(2R,3S,4R,5R)-5-(chloromethyl)-3-fluoro-4-hydroxy-5-(hydroxymethyl)oxolan-2-yl]-5-fluoropyrimidin-2-one], in series [1], the “inhibition of DAC-induced IFN signal in THP1 tumors” value is “dose-response inhibition of DAC-induced IFN signal”. In addition, the pIC50 in series [2] was at least 7.30.
Turning to `Nc1nc(=O)n([C@H]2C[C@H](O)[C@](CO)(CCl)O2)cc1F` [Compound 14, 4-amino-1-((2R,4S,5R)-5-(chloromethyl)-4-hydroxy-5-(hydroxymethyl)tetrahydrofuran-2-yl)-5-fluoropyrimidin-2(1H)-one], the “cytotoxicity, concentration” value in series [3] was at least 30 µM. In series [2], this molecule had a pIC50 of at least 7.30.
